For five molecules, activation results are on record in paper PMC7305236, “The atypical chemokine receptor ACKR3/CXCR7 is a broad-spectrum scavenger for opioid peptides” (Nature Communications, 2020).

Holding throughout (test): Figure S2a opioid peptide screen on chemokine receptors
Common to all, as to parameters: dose or concentration left out as unconfirmed

The target of one experiment is T1, CCR3 (Homo sapiens, UniProt P51677).
T1 sequence (P51677 1-355): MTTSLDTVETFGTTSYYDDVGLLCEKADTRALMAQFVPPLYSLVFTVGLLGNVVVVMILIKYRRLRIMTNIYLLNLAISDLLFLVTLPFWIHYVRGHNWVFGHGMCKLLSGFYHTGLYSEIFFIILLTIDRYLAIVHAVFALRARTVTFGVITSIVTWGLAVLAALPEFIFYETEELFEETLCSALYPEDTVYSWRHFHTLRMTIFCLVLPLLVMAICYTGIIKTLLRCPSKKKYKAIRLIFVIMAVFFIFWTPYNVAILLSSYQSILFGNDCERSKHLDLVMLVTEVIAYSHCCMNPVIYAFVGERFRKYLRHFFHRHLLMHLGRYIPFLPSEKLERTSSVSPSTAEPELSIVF
To be noted: read-out: CCR3 activity, ctrl+ = 100, Figure S2a.

The target of another experiment is T2, CXCR6 (Homo sapiens, UniProt O00574).
T2 construct: expressed in transfected cells
It counts as cell-based.

The next experiment has as its target T3, CXCR5 (Homo sapiens, UniProt P32302).
T3 construct: expressed in transfected cells
T3 sequence (P32302 1-372): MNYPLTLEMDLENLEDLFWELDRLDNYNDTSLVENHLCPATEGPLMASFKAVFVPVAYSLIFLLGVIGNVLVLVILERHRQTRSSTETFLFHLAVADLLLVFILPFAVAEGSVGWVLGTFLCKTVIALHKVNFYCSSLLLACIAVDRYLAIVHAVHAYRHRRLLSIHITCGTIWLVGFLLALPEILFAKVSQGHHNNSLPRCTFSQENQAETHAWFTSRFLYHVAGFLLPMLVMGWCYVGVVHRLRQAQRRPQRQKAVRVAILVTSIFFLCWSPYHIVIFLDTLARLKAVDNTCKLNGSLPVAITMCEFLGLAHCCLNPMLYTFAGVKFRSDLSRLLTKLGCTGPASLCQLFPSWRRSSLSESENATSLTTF
It counts as cell-based.

A further experiment deals with T4, ACKR2 (Homo sapiens, UniProt O00590).
T4 construct: expressed in transfected cells; host or cells: U87 cells (human glioblastoma)
T4 sequence (O00590 1-384): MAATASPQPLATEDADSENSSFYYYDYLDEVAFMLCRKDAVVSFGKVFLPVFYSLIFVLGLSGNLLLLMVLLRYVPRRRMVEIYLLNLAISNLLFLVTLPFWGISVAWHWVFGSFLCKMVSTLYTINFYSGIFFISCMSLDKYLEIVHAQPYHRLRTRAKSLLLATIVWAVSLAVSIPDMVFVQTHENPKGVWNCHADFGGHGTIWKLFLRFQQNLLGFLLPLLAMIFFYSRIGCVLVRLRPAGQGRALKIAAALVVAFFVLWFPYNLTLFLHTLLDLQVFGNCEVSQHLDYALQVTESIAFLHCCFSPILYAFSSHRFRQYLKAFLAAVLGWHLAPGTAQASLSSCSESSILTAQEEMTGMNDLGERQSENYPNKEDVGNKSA
It counts as cell-based.

Another experiment addresses T5, CXCR1 (Homo sapiens, UniProt P25024).
T5 construct: expressed in transfected cells
T5 sequence (P25024 1-350): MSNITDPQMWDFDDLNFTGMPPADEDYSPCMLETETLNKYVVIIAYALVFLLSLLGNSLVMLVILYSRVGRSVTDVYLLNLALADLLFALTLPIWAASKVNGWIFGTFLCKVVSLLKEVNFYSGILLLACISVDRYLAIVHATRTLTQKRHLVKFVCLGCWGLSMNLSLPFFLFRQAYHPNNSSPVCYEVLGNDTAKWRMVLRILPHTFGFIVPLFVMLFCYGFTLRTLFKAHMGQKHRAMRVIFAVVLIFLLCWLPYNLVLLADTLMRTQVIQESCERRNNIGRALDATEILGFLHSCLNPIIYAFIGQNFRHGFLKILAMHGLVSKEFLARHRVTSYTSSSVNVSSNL
It counts as cell-based.

For the next experiment, the target named is CCR8 (Homo sapiens, UniProt P51685). To be noted: read-out: CCR8 activity, ctrl+ = 100, Figure S2a.
The target in a further experiment is T6, CCR4 (Homo sapiens, UniProt P51679).
T6 construct: expressed in transfected cells
T6 sequence (P51679 1-360): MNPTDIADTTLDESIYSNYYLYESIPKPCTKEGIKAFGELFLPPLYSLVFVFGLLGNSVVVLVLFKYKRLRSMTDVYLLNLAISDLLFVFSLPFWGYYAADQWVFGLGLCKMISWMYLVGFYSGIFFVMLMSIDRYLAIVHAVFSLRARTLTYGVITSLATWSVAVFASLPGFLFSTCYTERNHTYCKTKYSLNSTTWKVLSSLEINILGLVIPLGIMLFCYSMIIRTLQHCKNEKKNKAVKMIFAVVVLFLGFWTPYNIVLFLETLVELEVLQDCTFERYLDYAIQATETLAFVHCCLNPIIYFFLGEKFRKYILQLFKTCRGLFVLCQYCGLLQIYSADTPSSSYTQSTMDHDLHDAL
It counts as cell-based.

The mark [1] stands for this setting: replicate 1, read-out: CXCR6 activity, ctrl+ = 100.
Setting [2] is: replicate 2, read-out: CXCR6 activity, ctrl+ = 100.
The mark [3] stands for this setting: replicate 3, read-out: CXCR6 activity, ctrl+ = 100.
[4] abbreviates: replicate 1, read-out: CXCR5 activity, ctrl+ = 100.
Where [5] appears, read: replicate 2, read-out: CXCR5 activity, ctrl+ = 100.
Setting [6] is: replicate 3, read-out: CXCR5 activity, ctrl+ = 100.
Where [7] appears, read: replicate 1, read-out: ACKR2 activity, ctrl+ = 100.
Where [8] appears, read: replicate 2, read-out: ACKR2 activity, ctrl+ = 100.
The mark [9] stands for this setting: replicate 3, read-out: ACKR2 activity, ctrl+ = 100.
Setting [10] is: replicate 1, read-out: CXCR1 activity, ctrl+ = 100.
[11] abbreviates: replicate 2, read-out: CXCR1 activity, ctrl+ = 100.
Where [12] appears, read: replicate 3, read-out: CXCR1 activity, ctrl+ = 100.
The mark [13] stands for this setting: replicate 1, read-out: CCR4 activity, ctrl+ = 100.
[14] abbreviates: replicate 2, read-out: CCR4 activity, ctrl+ = 100.
[15] abbreviates: replicate 3, read-out: CCR4 activity, ctrl+ = 100.

SMILES strings stand for the structures. Where two headings read alike, the source gives them in different places.

T2 sequence (O00574 whole entry): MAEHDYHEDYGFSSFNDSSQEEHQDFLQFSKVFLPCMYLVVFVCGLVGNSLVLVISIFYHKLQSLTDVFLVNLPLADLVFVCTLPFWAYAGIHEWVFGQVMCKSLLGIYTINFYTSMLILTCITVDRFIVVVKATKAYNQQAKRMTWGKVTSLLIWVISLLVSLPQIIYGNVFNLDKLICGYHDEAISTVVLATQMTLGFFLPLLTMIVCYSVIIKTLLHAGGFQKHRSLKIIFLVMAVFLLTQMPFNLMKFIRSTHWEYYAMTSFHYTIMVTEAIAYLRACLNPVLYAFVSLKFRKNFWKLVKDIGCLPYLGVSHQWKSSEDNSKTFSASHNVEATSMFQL
Sequence of CCR8 (P51685 whole entry): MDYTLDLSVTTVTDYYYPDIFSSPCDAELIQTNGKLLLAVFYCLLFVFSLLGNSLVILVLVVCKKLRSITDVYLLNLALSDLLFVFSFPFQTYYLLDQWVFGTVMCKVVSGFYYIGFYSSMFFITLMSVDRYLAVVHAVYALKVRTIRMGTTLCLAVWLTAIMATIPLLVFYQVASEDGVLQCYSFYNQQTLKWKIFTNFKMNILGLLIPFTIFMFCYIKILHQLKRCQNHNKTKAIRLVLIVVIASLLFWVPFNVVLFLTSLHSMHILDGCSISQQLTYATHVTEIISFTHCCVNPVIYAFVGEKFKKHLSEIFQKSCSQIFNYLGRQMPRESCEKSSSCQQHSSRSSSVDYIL

Consider `C[C@H](NC(=O)CNC(=O)[C@@H](NC(=O)[C@H](Cc1ccccc1)NC(=O)CNC(=O)CNC(=O)[C@@H](N)Cc1ccccc1)[C@@H](C)O)C(=O)N[C@@H](CCCNC(=N)N)C(=O)N[C@@H](CCCCN)C(=O)N[C@@H](CO)C(=O)N[C@@H](C)C(=O)N[C@@H](CCCNC(=N)N)C(=O)N[C@@H](CCCCN)C(N)=O` [Nociceptin 1-13], for which the activation at CCR3 (replicate 1) is 6.49%; on CCR3 (replicate 2), 6.25%; on CCR3 (replicate 3) it was 14.8%; on CXCR6 (setting [1]), -0.349%; on CXCR6 (setting [2]) it was -0.882%; on CXCR6 (setting [3]), 2.41%. The activation at CXCR5 (setting [4]) is -3.96%; on CXCR5 (setting [5]), -2.66%; at CXCR5 (setting [6]), -1.89%; at ACKR2 (setting [7]), -54.6%; on ACKR2 (setting [8]), -2.02%; at ACKR2 (setting [9]) it was 10.5%. In addition, the activation on CXCR1 (setting [10]) was 0.237%; on CXCR1 (setting [11]), 1.23%; at CXCR1 (setting [12]) it was -0.725%; at CCR8 (replicate 1), -35.6%; at CCR8 (replicate 2) it was -2.22%; at CCR8 (replicate 3), 6.11%. Moreover, the activation is -0.0637% at CCR4 (setting [13]), 0.246% at CCR4 (setting [14]) and 0.411% on CCR4 (setting [15]).

On to `CSCC[C@H](NC(=O)[C@H](Cc1ccccc1)NC(=O)CNC(=O)CNC(=O)[C@@H](N)Cc1ccc(O)cc1)C(=O)N[C@@H](CCCNC(=N)N)C(=O)N[C@@H](CCCNC(=N)N)C(=O)N[C@H](C(N)=O)C(C)C` [Adrenorphin], for which the activation at CCR3 (replicate 1) was 10.9%; at CCR3 (replicate 2), -10.8%; at CCR3 (replicate 3), 23.6%; on CXCR6 (setting [1]) it was 0.866%; on CXCR6 (setting [2]) it was -0.941%; on CXCR6 (setting [3]) it was -0.716%. Also, the activation at CXCR5 (setting [4]) is -2.55%; on CXCR5 (setting [5]) it was -4.15%; at CXCR5 (setting [6]), 2.83%; at ACKR2 (setting [7]), -9.62%; on ACKR2 (setting [8]), -28.7%; at ACKR2 (setting [9]), -0.924%. Besides, the activation at CXCR1 (setting [10]) was 0.451%; at CXCR1 (setting [11]), 0.739%; on CXCR1 (setting [12]), -0.427%; on CCR8 (replicate 1), -17.4%; at CCR8 (replicate 2) it was -15.7%; on CCR8 (replicate 3), -4%. For the same molecule, the figures for the activation at CCR4 (setting [13]), on CCR4 (setting [14]) and on CCR4 (setting [15]) were -4.72%, -4.07% and 2.73%, respectively.

Regarding `CC[C@H](C)[C@H](NC(=O)[C@H](CCCNC(=N)N)NC(=O)[C@H](CCCNC(=N)N)NC(=O)[C@H](CC(C)C)NC(=O)[C@H](Cc1ccccc1)NC(=O)CNC(=O)CNC(=O)[C@@H](N)Cc1ccc(O)cc1)C(=O)N[C@@H](CCCNC(=N)N)C(=O)N1CCC[C@H]1C(=O)N[C@@H](CCCCN)C(=O)N[C@@H](CC(C)C)C(=O)N[C@@H](CCCCN)C(=O)O` [Dynorphin 1-13], the activation at CCR3 (replicate 1) is 5.05%; at CCR3 (replicate 2) it was -11.6%; on CXCR6 (setting [1]) it was 0.0731%; on CXCR6 (setting [2]), -1.13%; on CXCR5 (setting [4]), -0.575%; at CXCR5 (setting [5]) it was -5.55%. In addition, the activation on ACKR2 (setting [7]) was -0.369%; on ACKR2 (setting [8]), -39.6%; on CXCR1 (setting [10]), 0.218%; at CXCR1 (setting [11]), -1.21%; on CCR8 (replicate 2) it was -19.6%; at CCR4 (setting [13]) it was 0.25%. The activation on CCR4 (setting [14]) was -3.89%.

For the molecule `CC(C)C[C@H](NC(=O)[C@H](Cc1ccccc1)NC(=O)CNC(=O)CNC(=O)[C@@H](N)Cc1ccc(O)cc1)C(=O)N[C@@H](CCCN=C(N)N)C(=O)N[C@@H](CCCN=C(N)N)C(=O)N[C@@H](CCC(N)=O)C(=O)N[C@@H](Cc1ccccc1)C(=O)N[C@@H](CCCCN)C(=O)N[C@H](C(=O)N[C@H](C(=O)N[C@H](C(=O)O)[C@@H](C)O)C(C)C)C(C)C` [Dynorphin B], the activation on CCR3 (replicate 1) is 22.6%; at CCR3 (replicate 2) it was -7.56%; on CXCR6 (setting [1]), -1.05%; at CXCR6 (setting [2]), -1.2%; on CXCR6 (setting [3]), 0.0809%; on CXCR5 (setting [4]) it was -2.46%. Moreover, the activation on CXCR5 (setting [5]) is -6.11%; on CXCR5 (setting [6]), 11.3%; at ACKR2 (setting [7]), -36.9%; on ACKR2 (setting [8]), -27.9%; on ACKR2 (setting [9]) it was -3.73%; at CXCR1 (setting [10]), -0.474%. Besides, the activation on CXCR1 (setting [11]) was -0.947%; on CXCR1 (setting [12]), 0.71%; on CCR8 (replicate 1), 2.83%; at CCR8 (replicate 2) it was -25.3%; at CCR8 (replicate 3), 18.8%; at CCR4 (setting [13]), -1.26%. Besides, the activation was -2.57% at CCR4 (setting [14]) and 5.93% on CCR4 (setting [15]).

On to `NC(=O)[C@H](Cc1ccccc1)NC(=O)[C@H](Cc1c[nH]c2ccccc12)NC(=O)[C@@H]1CCCN1C(=O)[C@@H](N)Cc1ccc(O)cc1` [Endomorphin-1], for which the activation at CCR3 (replicate 1) is 18.4%; at CCR3 (replicate 2), 4.97%; on CXCR6 (setting [1]), -0.315%; at CXCR6 (setting [2]), 1.12%; on CXCR5 (setting [4]) it was 1.35%; at CXCR5 (setting [5]), -1.48%. For the same molecule, the activation on ACKR2 (setting [7]) is -6%; at ACKR2 (setting [8]), 11.5%; on CXCR1 (setting [10]), 0.195%; at CXCR1 (setting [11]) it was -0.597%; on CCR8 (replicate 1), -25.5%; on CCR8 (replicate 2), 19.4%. For the same molecule, the activation was 0.589% on CCR4 (setting [13]) and -1.89% on CCR4 (setting [14]).
